In patent US20130116298A1, “ANTITUMOR AGENT OR POSTOPERATIVE ADJUVANT CHEMOTHERAPEUTIC AGENT FOR HEPATOCELLULAR CARCINOMA TREATMENT” (TAIHO PHARMACEUTICAL CO., LTD., priority 2009, published 2013):

Key:
[1] = tested on: various human cancer cell lines; details: oral administration alone; lung cancer, large bowel cancer, uterus cancer and the like; cited from earlier work
hepatocellular carcinoma = assay: Comparative clinical study of TSU-68 therapy in hepatocellular carcinoma patients treated with TACE; assay type: in vivo; details: for Median of progression-free survival: 200 mg orally twice daily, started within 2 weeks after TACE
Protocol: A comparative clinical study was conducted for the TSU-68 administration group and the TSU-68 non-administration group consisting of cases that were impossible to treat with hepatectomy and PAT and had been treated with TACE and excluding cases evaluated as Child-Pugh grade C in terms of hepatic functional reserve. The antitumor agent used for TACE was epirubicin.
The subject cases were randomly assigned to the TSU-68 administration group and the TSU-68 non-administration group. TSU-68 administration was initiated for cases assigned to the TSU-68 administration group within 2 weeks after TACE. TSU-68 was administered orally at a dose of 200 mg per administration twice daily after breakfast and dinner on consecutive days. No further treatment was given to the TSU-68 non-administration group after TACE and thus only follow-up observation was carried out.
Progression-free survival was defined as survival within the period from the day of TACE designated as the initial date of reckoning to any of dates on which the following events was observed, whichever came first.
1. Date on which the presence of progressive disease (hereinafter referred to as “PD”) was confirmed as a result of assessment of best overall response (date of testing). 2. Date on which a test subject died for any reason (date of death). 3. Date on which a test subject was assessed to have experienced clinically obvious deterioration of the disease or to be in need of post-TACE treatment even without confirmation of PD upon assessment of best overall response (date of assessment).
Best overall response was evaluated by measuring tumor diameters by CT and assaying tumor markers (AFP, PIVKA-II, and AFP-L3 fractions) according to New Guideline to Evaluate the Response to Treatment in Solid Tumor (hereinafter referred to as “RECIST”) (J Natl Cancer Inst 92: 205, 2000).

[2] = unresectable hepatocellular carcinoma patients; cited from earlier work
[3] = TACE-treated hepatocellular carcinoma patients of Child-Pugh grade A

| Structure (SMILES) | Antitumor effect (tumor growth) [1] | Progression-free survival compared with the TSU-68 non-administration group (hepatocellular carcinoma; TACE-treated hepatocellular carcinoma patients) | Progression-free survival compared with the TSU-68 non-administration group (hepatocellular carcinoma; [3]) | Median of progression-free survival (hepatocellular carcinoma; [3]) | Severity of each adverse reaction (hepatocellular carcinoma; major adverse reactions: abdominal pain, ascites, edema, general fatigue, fever, feeling of sickness) | Median of progression-free survival (hepatocellular carcinoma; post-TACE hepatocellular carcinoma patients) | Increase of AST level in patients [2] | Increase of bilirubin level (corresponding to score 3 or more) in patients [2] |
| --- | --- | --- | --- | --- | --- | --- | --- | --- |
| Cc1[nH]c(/C=C2\C(=O)Nc3ccccc32)c(C)c1CCC(=O)O [TSU-68, (Z)-5-[(1,2-dihydro-2-oxo-3H-indol-3-ylidene)methyl]2,4-dimethyl-1H-pyrrol-3-propanoic acid] | effective for inhibiting tumor growth | significantly extended | significantly extended | 5.8 month | grade 1 or 2 | 5.2 month |  |  |
| CNC(=O)c1cc(Oc2ccc(NC(=O)Nc3ccc(Cl)c(C(F)(F)F)c3)cc2)ccn1 [sorafenib] |  |  |  |  |  |  | 45% | 32% |
